Experimental findings from patent US11453703B2, “Heterotandem bicyclic peptide complexes” (BicycleTX Limited, priority 2018, dated 2022) are described below.

One series has as its target T1, human Nectin-4 protein (Homo sapiens, UniProt Q96NY8).
T1 construct: Human Nectin-4 (residues Gly32-Ser349); host or cells: Sf21 insect cells (baculovirus, pFastbac-1)
T1 sequence (Q96NY8 32-349): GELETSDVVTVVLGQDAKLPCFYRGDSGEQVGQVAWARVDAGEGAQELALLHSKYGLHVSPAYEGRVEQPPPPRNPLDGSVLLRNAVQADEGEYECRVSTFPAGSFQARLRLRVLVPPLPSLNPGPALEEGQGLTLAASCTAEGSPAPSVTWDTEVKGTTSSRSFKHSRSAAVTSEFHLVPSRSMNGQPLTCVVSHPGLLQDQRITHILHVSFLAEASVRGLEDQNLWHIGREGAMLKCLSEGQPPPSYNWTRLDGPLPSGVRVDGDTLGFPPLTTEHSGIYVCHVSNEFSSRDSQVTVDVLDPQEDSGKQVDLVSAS
Kind of series: Nectin-4 Biacore (SPR) binding assay. Particulars: biotinylated human Nectin-4, 25° C. How it is done: Biacore experiments were performed to determine ka (M^−1s^−1), kd (s^−1), KD (nM) values of heterotandem peptides binding to human Nectin-4 protein (obtained from Charles River). Human Nectin-4 (residues Gly32-Ser349; NCBI RefSeq: NP_112178.2) with a gp67 signal sequence and C-terminal FLAG tag was cloned into pFastbac-1 and baculovirus made using standard Bac-to-Bac™ protocols (Life Technologies). Sf21 cells at 1×10^6 ml^−1 in Excell-420 medium (Sigma) at 27° C. were infected at an MOI of 2 with a P1 virus stock and the supernatant harvested at 72 hours. The supernatant was batch bound for 1 hour at 4° C. with Anti-FLAG M2 affinity agarose resin (Sigma) washed in PBS and the resin subsequently transferred to a column and washed extensively with PBS. The protein was eluted with 100 μg/ml FLAG peptide. The eluted protein was concentrated to 2 ml and loaded onto an S-200 Superdex column (GE Healthcare) in PBS at 1 ml/min. 2 ml fractions were collected and the fractions containing Nectin-4 protein were concentrated to 16 mg/ml.
The protein was extensively desalted to remove uncoupled biotin using spin columns into PBS.
For analysis of peptide binding, a Biacore 3000 instrument was used with a CM5 chip (GE Healthcare). Streptavidin was immobilized on the chip using standard amine-coupling chemistry at 25° C. with HBS-N (10 mM HEPES, 0.15 M NaCl, pH 7.4) as the running buffer. Briefly, the carboxymethyl dextran surface was activated with a 7 minute injection of a 1:1 ratio of 0.4 M 1-ethyl-3-(3-dimethylaminopropyl) carbodiimide hydrochloride (EDC)/0.1 M N-hydroxy succinimide (NHS) at a flow rate of 10 μl/min. For capture of streptavidin, the protein was diluted to 0.2 mg/ml in 10 mM sodium acetate (pH 4.5) and captured by injecting 120 μl of streptavidin onto the activated chip surface. Residual activated groups were blocked with a 7 minute injection of 1 M ethanolamine (pH 8.5) and biotinylated Nectin-4 captured to a level of 1,200-1,800 RU. Buffer was changed to PBS/0.05% Tween 20 and a dilution series of the peptides was prepared in this buffer with a final DMSO concentration of 0.5%. The top peptide concentration was 100 nM with 6 further 2-fold dilutions. The SPR analysis was run at 25° C. at a flow rate of 50 μl/min with 60 seconds association and dissociation between 400 and 1,200 seconds depending upon the individual peptide. Data were corrected for DMSO excluded volume effects. All data were double-referenced for blank injections and reference surface using standard processing procedures and data processing and kinetic fitting were performed using Scrubber software, version 2.0c (BioLogic Software). Data were fitted using simple 1:1 binding model allowing for mass transport effects where appropriate.

Series [1] deals with T2, CD137 (Homo sapiens, UniProt Q07011). Kind of series: CD137 Biacore (SPR) binding assay. Particulars: biotinylated human CD137, 25° C. On the set-up: purchased R&D systems. The method in brief:
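Biotinylated human CD137 captured (270-1500 RU) on streptavidin-coupled dextran chip; peptides up to 500 nM in PBS/0.05% Tween 20, 0.5% DMSO, at 25°C, 60 s association, 900 s dissociation. Double-referenced data fitted to 1:1 binding model, with mass transport where appropriate.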
Background: In SPR one partner is held on a chip, and binding of the other changes the refractive index at the surface.

Series [2] addresses T2, CD137. As to the kind of experiment: CD137 reporter assay, co-culture with Nectin-4 tumour cells.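 On all read-outs here: jurkat reporter cells co-cultured with tumour cells and test article for 6 h, luminescence signal relative to Jurkat plus tumour cells lacking test article.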 Type of series: cell-based. On the set-up: host or cells: Jurkat reporter cells. Particulars: for Fold Induction over Background: tumour target Nectin4, co-culture with H1376, 6 h.
Method: Culture medium referred to as R1 media is prepared by adding 1% FBS to RPMI-1640 (component of Promega kit CS196005). Serial dilutions of test articles in R1 are prepared in a sterile 96 well-plate. Use 25 μl per well of test articles or R1 (as a background control) to designated wells in white cell culture plate. Tumour cells* are harvested and resuspended at a concentration of 400,000 cells/mL in R1 media. Twenty five (25) μL/well tumour cells are used in white cell culture plate. Jurkat cells (Promega kit CS196005, 0.5 mL) are thawed in the water bath and then added to 5 ml pre-warmed R1 medium. Twenty five (25) μL/well Jurkat cells are used in white cell culture plate. Incubate the cells and test articles for 6h at 37° C., 5% CO2. At the end of 6 h, add 75 μl/well Bio-Glo™ (Promega) and incubate for 10 min before reading luminescence in a plate reader (Clariostar, BMG). The fold change relative to cells (Jurkat cells+Cell line used in co-culture) is calculated and plotted in GraphPad Prism as log(agonist) vs response to determine EC50 (nM) and Fold Induction over background (Max)
The subject of series [3] is human PBMC co-cultured with 4T1-D02 (Nectin4+). Kind of series: Human PBMC-4T1 co-culture (cytokine release) assay. It counts as cell-based. Particulars: anti-CD3 stimulated PBMC, 48 hours. The method, then: Mouse mammary gland tumor cell line 4T1-1 (4T1-Parental) and murine Nectin-4 overexpressing 4T1 (4T1-D02) were cultured in RPMI1640 supplemented with 10% heat-inactivated Fetal Bovine Serum, 100 I.U/ml Penicillin and 100 I.U/Streptomycin, 20 mM HEPES, 1× Non-Essential Amino Acids, and 2 mM L-Glutamine (RPMI working medium). Frozen PBMCs from healthy human donors were thawed and washed one time in room temperature PBS, and then resuspended in RPMI working medium. For tumor cell and PBMC co-culture, 10000 PBMCs and 2000 tumor cells (5:1) were mixed and plated in each well of a 384 well plate. For stimulating human PBMCs, 125 ng/ml of soluble anti-CD3 mAb (clone OKT3) was added to the culture on day 0. Test, control compounds or vehicle controls were added to respective wells and brought the final volume per well to 100u1. Plates were incubated in a 37° C. cell culture incubator with 5% CO2 for up to three days. Supernatants were collected 48 hours after stimulation, and human IL-2 and IFFγ were detected using HTRF assays. Raw data were analyzed using Excel or Prism software to generate standard curves to interpolate protein concentrations. Data represents one study with three different donor PBMC tested in experimental duplicates.

The nature of series [4]: Pharmacokinetics of CD137 bispecifics in SD rats. It counts as in vivo. Particulars: male, Sprague-Dawley (SD), SD Rat, 2 mg/kg IV, plasma. The method, then:
Male SD Rats were dosed with 2 mg/kg of each Bicycle multimer formulated in 25 mM Histidine HCl, 10% sucrose pH 7. Serial bleeding (about 80 μL blood/time point) was performed via submadibular or saphenous vein at each time point. All blood samples were immediately transferred into prechilled microcentrifuge tubes containing 2 μL K2-EDTA (0.5M) as anti-coagulant and placed on wet ice. Blood samples were immediately processed for plasma by centrifugation at approximately 4° C., 3000 g. The precipitant including internal standard was immediately added into the plasma, mixed well and centrifuged at 12,000 rpm, 4° C. for 10 minutes. The supernatant was transferred into pre-labeled polypropylene microcentrifuge tubes, and then quick-frozen over dry ice. The samples were stored at […] or below as needed until analysis. 7.5 μL of the supernatant samples were directly injected for LC-MS/MS analysis using an Orbitrap Q Exactive in positive ion mode to determine the concentrations of Bicycle multimer. Plasma concentration versus time data were analyzed by non-compartmental approaches using the Phoenix WinNonlin 6.3 software program. C0, CI, Vdss, T½, AUC(0-last), AUC(0-inf), MRT(0-last), MRT(0-inf) and graphs of plasma concentration versus time profile were reported.

T2 sequence (Q07011 24-255): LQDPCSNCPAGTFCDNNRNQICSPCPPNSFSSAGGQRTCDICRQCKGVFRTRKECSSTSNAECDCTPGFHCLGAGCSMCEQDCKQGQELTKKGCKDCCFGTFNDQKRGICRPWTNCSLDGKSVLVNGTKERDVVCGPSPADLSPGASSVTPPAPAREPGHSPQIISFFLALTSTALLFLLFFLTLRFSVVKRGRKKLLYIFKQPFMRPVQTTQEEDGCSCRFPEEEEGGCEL

What is called Kd is the equilibrium constant for the complex coming apart. Lower therefore signals a tighter complex. One may read the EC50 as the concentration giving half of the maximal effect. Read a low EC50 as higher potency in that assay. The molecule `CCCC[C@@H]1NC(=O)[C@H](Cc2ccc(O)cc2)NC(=O)[C@@H]2CCCN2C(=O)[C@H](CC(=O)O)NC(=O)[C@H](C)NC(=O)[C@H](Cc2ccccc2)NC(=O)[C@@H]2CSCCC(=O)N3CN(CN(C3)C(=O)CCSC[C@@H](C(=O)N[C@@H](CNC(=O)CCc3cn(CCCNC(=O)CN(C)C(=O)CN(C)C(=O)CN(C)C(=O)CN(C)C(=O)CN(C)C(=O)CN(C)C(=O)CN(C)C(=O)CN(C)C(=O)CN(C)C(=O)CN(C)C(=O)COCCOCCOCCOCCOCCOCCOCCOCCOCCOCCNC(=O)N[C@H]4CSCCC(=O)N5CN6CN(C5)C(=O)CCSC[C@H](NC(=O)[C@@H](CC(=O)O)NC(=O)[C@H](Cc5cccc7ccccc57)NC(=O)[C@@H]5CCCN5C4=O)C(=O)N[C@@H](CCSC)C(=O)N[C@@H](CCCCNC(=N)N)C(=O)N[C@@H](CC(=O)O)C(=O)N[C@@H](Cc4c[nH]c5ccccc45)C(=O)N[C@@H](CO)C(=O)N[C@@H]([C@@H](C)O)C(=O)N4CCC[C@H]4C(=O)N4C[C@H](O)C[C@H]4C(=O)N[C@@H](Cc4c[nH]c5ccccc45)C(=O)N[C@H](C(N)=O)CSCCC6=O)nn3)C(N)=O)NC1=O)C(=O)CCSC[C@H](NC(=O)[C@H](C)NC(C)=O)C(=O)N[C@@H]([C@@H](C)CC)C(=O)N[C@@H](CCC(=O)O)C(=O)N[C@@H](CCC(=O)O)C(=O)NCC(=O)N[C@@H](CCC(N)=O)C(=O)N[C@@H](Cc1ccc(O)cc1)C(=O)N2` [BCY9408] showed a Kd on human Nectin-4 protein of 1.57 nM. At CD137 [1], the Kd came to 105 nM. Further, on CD137 [2], a half-maximal effect (EC50) was put at 1.1 nM and the “Fold Induction over Background” value was determined as 20 fold.
On the same counts, the results for `CCCC[C@@H]1NC(=O)[C@H](Cc2ccc(O)cc2)NC(=O)[C@@H]2CCCN2C(=O)[C@H](CC(=O)O)NC(=O)[C@H](C)NC(=O)[C@H](Cc2ccccc2)NC(=O)[C@@H]2CSCCC(=O)N3CN(CN(C3)C(=O)CCSC[C@@H](C(=O)N[C@@H](CNC(=O)CCc3cn(CCCNC(=O)CN(C)C(=O)CN(C)C(=O)CN(C)C(=O)CN(C)C(=O)CN(C)C(=O)CN(C)C(=O)CN(C)C(=O)CN(C)C(=O)CN(C)C(=O)CN(C)C(=O)CN(C)C(=O)CN(C)C(=O)CN(C)C(=O)CN(C)C(=O)CN(C)C(=O)COCCOCCOCCOCCOCCNC(=O)N[C@H]4CSCCC(=O)N5CN6CN(C5)C(=O)CCSC[C@H](NC(=O)[C@@H](CC(=O)O)NC(=O)[C@H](Cc5cccc7ccccc57)NC(=O)[C@@H]5CCCN5C4=O)C(=O)N[C@@H](CCSC)C(=O)N[C@@H](CCCCNC(=N)N)C(=O)N[C@@H](CC(=O)O)C(=O)N[C@@H](Cc4c[nH]c5ccccc45)C(=O)N[C@@H](CO)C(=O)N[C@@H]([C@@H](C)O)C(=O)N4CCC[C@H]4C(=O)N4C[C@H](O)C[C@H]4C(=O)N[C@@H](Cc4c[nH]c5ccccc45)C(=O)N[C@H](C(N)=O)CSCCC6=O)nn3)C(N)=O)NC1=O)C(=O)CCSC[C@H](NC(=O)[C@H](C)NC(C)=O)C(=O)N[C@@H]([C@@H](C)CC)C(=O)N[C@@H](CCC(=O)O)C(=O)N[C@@H](CCC(=O)O)C(=O)NCC(=O)N[C@@H](CCC(N)=O)C(=O)N[C@@H](Cc1ccc(O)cc1)C(=O)N2` [BCY9409] are 1.66 nM, 97.7 nM, 1.2 nM and 24 fold.
For the molecule `CCCC[C@@H]1NC(=O)[C@H](Cc2ccc(O)cc2)NC(=O)[C@@H]2CCCN2C(=O)[C@H](CC(=O)O)NC(=O)[C@H](C)NC(=O)[C@H](Cc2ccccc2)NC(=O)[C@@H]2CSCCC(=O)N3CN(CN(C3)C(=O)CCSC[C@@H](C(=O)N[C@@H](CNC(=O)CCOCCOCCOCCOCCOCCOCCOCCOCCOCCOCCOCCOCCn3cc(CCC(=O)NCCC(=O)N(C)CC(=O)N(C)CC(=O)N(C)CC(=O)N(C)CC(=O)N(C)CC(=O)N(C)CC(=O)N(C)CC(=O)N(C)CC(=O)N(C)CC(=O)N(C)CC(=O)N[C@H]4CSCCC(=O)N5CN6CN(C5)C(=O)CCSC[C@H](NC(=O)[C@@H](CC(=O)O)NC(=O)[C@H](Cc5cccc7ccccc57)NC(=O)[C@@H]5CCCN5C4=O)C(=O)N[C@@H](CCSC)C(=O)N[C@@H](CCCCNC(=N)N)C(=O)N[C@@H](CC(=O)O)C(=O)N[C@@H](Cc4c[nH]c5ccccc45)C(=O)N[C@@H](CO)C(=O)N[C@@H]([C@@H](C)O)C(=O)N4CCC[C@H]4C(=O)N4C[C@H](O)C[C@H]4C(=O)N[C@@H](Cc4c[nH]c5ccccc45)C(=O)N[C@H](C(N)=O)CSCCC6=O)nn3)C(N)=O)NC1=O)C(=O)CCSC[C@H](NC(C)=O)C(=O)N[C@@H](CC(C)(C)C)C(=O)N1CCC[C@H]1C(=O)N[C@@H](CCC(=O)O)C(=O)N[C@H](C)C(=O)N1CCC[C@H]1C(=O)N[C@@H](Cc1ccc(O)cc1)C(=O)N2` [BCY10000], the EC50 in series [3] (IFN-γ secretion) came to 0.21 nM. Moreover, the “max IFN-y” value in series [3] was 19642 pg/mL. The clearance in series [4] (read-out: Clp) is 16.1 mL/min/kg. The half-life in series [4] (read-out: T½ (converted)) was 21.4 min. Moreover, the Vd in series [4] (read-out: Vdss) amounted to 0.395 L/kg. Further, the “Fold Induction over Background” value at CD137 [2] worked out at 61 fold.
